Test results published in US20220281848A1, “PYRAZOLE-SUBSTITUTED PYRROLIDINONES AS HERBICIDES” (FMC Corporation, priority 2019, published 2022).

Tests used:
Assay type in all cases: in vivo
[1] = system: giant foxtail (Setaria faberi, SETFA); assay: Test A pre-emergence, giant foxtail; conditions: after 13 d
Summary of the method: (§1)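 Seeds sown in pots of standard soil and sprayed one day later, pre-emergence, at 15.625, 62.5 or 250 g/ha in acetone/water (50:50) with 0.5% Tween 20. Grown in glasshouse at 24/16 °C, 14 h light, 65% humidity. Damage scored after 13 d (0 none, 100 total).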

[2] = system: velvetleaf (Abutilon theophrasti, ABUTH); assay: Test A pre-emergence, velvetleaf; conditions: after 13 d
Summary of the method: as §1

[3] = system: corn (Zea mays, ZEAMX); assay: Test A post-emergence, corn; conditions: after 13 d
Summary of the method: (§2)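 Plants were grown 8 d in a glasshouse (24/16° C day/night, 14 h light, 65% humidity), then sprayed post-emergence at 15.625, 62.5 or 250 g/ha in acetone/water (50:50) with 0.5% Tween 20. Damage was scored visually after 13 d (0 = none, 100 = total).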

[4] = system: giant foxtail (Setaria faberi, SETFA); assay: Test A post-emergence, giant foxtail; conditions: after 13 d
Summary of the method: as §2

[5] = system: barnyardgrass (Echinochloa crus-galli, ECHCG); assay: Test A post-emergence, barnyardgrass; conditions: after 13 d
Summary of the method: as §2

[6] = system: ivy-leaved morning glory (Ipomoea hederacea, IPOHE); assay: Test A post-emergence, ivy-leaved morning glory; conditions: after 13 d
Summary of the method: as §2

[7] = system: wheat; assay: Test D pre-emergence, wheat seed treated with a herbicide safener; conditions: 100=total damage, 0=no damage
Protocol: A formulation containing 50 g/L of the test chemical was prepared by dissolving the active ingredient in a mixture of organic solvents and emulsifier, details of which are provided in the table. This formulation was then mixed with a small, variable amount of acetone to aid dissolution, before addition of a 0.2% v/v aqueous solution of an adjuvant, as the aqueous diluent, to form an aqueous spray solution which contains a predetermined concentration of the active ingredient.
This aqueous spray solution was then sprayed onto plants including maize and wheat that had been seed treated with a herbicide safener, after one day's cultivation (for pre-emergence) or after about 12 days' cultivation (for post-emergence). The plants were grown from seeds sown in standard soil, placed in a glasshouse under controlled conditions (at 24/18° C. or 20/16° C., day/night; 16 h light; 65% humidity). After spray application the plants were then grown in a glasshouse under the same conditions and watered twice daily. After 15 d for post-emergence and 20 DAA for pre-emergence the test was evaluated (100=total damage to plant; 0=no damage to plant).

| SMILES | damage to plant (100=total damage; 0=no damage) SETFA ([1]; Pre-Emergence at 15.625 g/ha) | damage to plant (100=total damage; 0=no damage) SETFA ([1]; Pre-Emergence at 62.5 g/ha) | damage to plant (100=total damage; 0=no damage) SETFA ([1]; Pre-Emergence at 250 g/ha) | damage to plant (100=total damage; 0=no damage) ABUTH ([2]; Pre-Emergence at 15.625 g/ha) | damage to plant (100=total damage; 0=no damage) ABUTH ([2]; Pre-Emergence at 62.5 g/ha) | damage to plant (100=total damage; 0=no damage) ABUTH ([2]; Pre-Emergence at 250 g/ha) | damage to plant (100=total damage; 0=no damage) ZEAMX ([3]; Post-Emergence at 15.625 g/ha) | damage to plant (100=total damage; 0=no damage) ZEAMX ([3]; Post-Emergence at 62.5 g/ha) | damage to plant (100=total damage; 0=no damage) ZEAMX ([3]; Post-Emergence at 250 g/ha) | damage to plant (100=total damage; 0=no damage) SETFA ([4]; Post-Emergence at 15.625 g/ha) | damage to plant (100=total damage; 0=no damage) SETFA ([4]; Post-Emergence at 62.5 g/ha) | damage to plant (100=total damage; 0=no damage) SETFA ([4]; Post-Emergence at 250 g/ha) | damage to plant (100=total damage; 0=no damage) ECHCG ([5]; Post-Emergence at 15.625 g/ha) | damage to plant (100=total damage; 0=no damage) ECHCG ([5]; Post-Emergence at 62.5 g/ha) | damage to plant (100=total damage; 0=no damage) ECHCG ([5]; Post-Emergence at 250 g/ha) | damage to plant (100=total damage; 0=no damage) IPOHE ([6]; Post-Emergence at 15.625 g/ha) | damage to plant (100=total damage; 0=no damage) IPOHE ([6]; Post-Emergence at 62.5 g/ha) | damage to plant (100=total damage; 0=no damage) IPOHE ([6]; Post-Emergence at 250 g/ha) | damage to plant, TRZAW ([7]; rate 15, 20 DAA) | damage to plant, TRZAW ([7]; rate 30, 20 DAA) | further results |
| --- | --- | --- | --- | --- | --- | --- | --- | --- | --- | --- | --- | --- | --- | --- | --- | --- | --- | --- | --- | --- | --- |
| CN1CC(c2cc(C(F)(F)F)n(C)n2)C(C(=O)Nc2cccc(F)c2C(F)(F)F)C1=O (racemic) [Compound 19] | 80 | 90 | 90 | 0 | 0 | 0 | 0 | 0 | 10 | 70 | 70 | 80 | 60 | 70 | 80 | 0 | 0 | 0 | 0 | 0 | damage to plant, TRZAW ([7]; rate 60, 20 DAA): 0; damage to plant, TRZAW ([7]; rate 130, 20 DAA): 0; damage to plant, TRZAW ([7]; rate 250, 20 DAA): 10; damage to plant, TRZAW ([7]; rate 500, 20 DAA): 60 |
| CCn1nc([C@@H]2CN(C)C(=O)[C@H]2C(=O)Nc2cccc(F)c2F)c2cccc(F)c21 [Compound 14] | 60 | 90 | 90 | 0 | 0 | 0 | 70 | 70 | 80 | 80 | 80 | 90 | 80 | 80 | 80 | 10 | 30 | 50 | 0 | 0 | damage to plant, TRZAW ([7]; rate 60, 20 DAA): 0; damage to plant, TRZAW ([7]; rate 130, 20 DAA): 0; damage to plant, TRZAW ([7]; rate 250, 20 DAA): 60; damage to plant, TRZAW ([7]; rate 500, 20 DAA): 90 |
| CCn1nc([C@H]2CN(C)C(=O)[C@@H]2C(=O)Nc2cccc(F)c2F)c2c(F)cccc21 [Compound 7] | 70 | 80 | 90 | 0 | 0 | 0 | 20 | 40 | 80 | 60 | 70 | 80 | 60 | 80 | 80 | 20 | 20 | 0 | 0 | 0 | damage to plant, TRZAW ([7]; rate 60, 20 DAA): 0; damage to plant, TRZAW ([7]; rate 130, 20 DAA): 0; damage to plant, TRZAW ([7]; rate 250, 20 DAA): 0; damage to plant, TRZAW ([7]; rate 500, 20 DAA): 0 |
| CCn1nc([C@H]2CN(C)C(=O)[C@@H]2C(=O)Nc2cccc(F)c2F)c2ccc(F)cc21 [Compound 4] | 80 | 90 | 90 | 0 | 0 | 0 | 20 | 50 | 90 | 90 | 90 | 90 | 80 | 90 | 90 | 0 | 0 | 20 | 0 | 0 | damage to plant, TRZAW ([7]; rate 60, 20 DAA): 0; damage to plant, TRZAW ([7]; rate 130, 20 DAA): 0; damage to plant, TRZAW ([7]; rate 250, 20 DAA): 0; damage to plant, TRZAW ([7]; rate 500, 20 DAA): 0 |
| COc1c(F)cccc1NC(=O)C1C(=O)N(C)CC1c1cc(C(F)(F)F)n(C)n1 (racemic) [Compound 18] | 90 | 90 | 90 | 0 | 0 | 0 | 0 | 30 | 80 | 50 | 70 | 70 | 50 | 70 | 70 | 10 | 20 | 50 | 0 | 0 | damage to plant, TRZAW ([7]; rate 60, 20 DAA): 0; damage to plant, TRZAW ([7]; rate 130, 20 DAA): 0; damage to plant, TRZAW ([7]; rate 250, 20 DAA): 20; damage to plant, TRZAW ([7]; rate 500, 20 DAA): 30 |
| CN1CC(c2cc(C(F)(F)F)n(C)n2)C(C(=O)Nc2ccccc2F)C1=O (racemic) [Compound 9] | 70 | 90 | 90 | 0 | 0 | 0 | 20 | 0 | 50 | 40 | 90 | 90 | 60 | 90 | 90 | 10 | 0 | 0 | 0 | 0 | damage to plant, TRZAW ([7]; rate 60, 20 DAA): 0; damage to plant, TRZAW ([7]; rate 130, 20 DAA): 0; damage to plant, TRZAW ([7]; rate 250, 20 DAA): 0; damage to plant, TRZAW ([7]; rate 500, 20 DAA): 0 |
| CN1CC(c2cc(C(F)(F)F)n(C)n2)C(C(=O)Nc2ccc(F)nc2F)C1=O (racemic) [Compound 22] | 80 | 90 | 90 | 0 | 0 | 0 | 20 | 40 | 80 | 50 | 70 | 80 | 60 | 70 | 80 | 0 | 10 | 30 | 0 | 0 | damage to plant, TRZAW ([7]; rate 60, 20 DAA): 0; damage to plant, TRZAW ([7]; rate 130, 20 DAA): 0; damage to plant, TRZAW ([7]; rate 250, 20 DAA): 0; damage to plant, TRZAW ([7]; rate 500, 20 DAA): 10 |
